Measurements as given in US20250034136A1 (Nimbus Wadjet, Inc., priority 2023, published 2025).
Where two headings read alike, the source gives them in different places.

Tests used:
[1] = tested on: p21 induction in HCT116 cells; assay: p21 induction in HCT116 cells; assay type: cell-based; conditions: HCT116 cells, 24 h compound incubation, read-out: P21_EC50
How it was run: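 EC50 from non-linear curve fit of p21 immunofluorescence (800 nm), with GAPDH (700 nm) read alongside. DMSO and a reference WRN inhibitor served as low and high controls. Cells (2,000/well) got 11 compound concentrations in duplicate for 24 h at 37 °C.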

[2] = molecular target: WRN (BV08), human Werner helicase (Uniprot Q14191, amino acids 517-1235 with L1074F point mutation) (Homo sapiens (Human), UniProt Q14191, L1074F); assay: WRN (BV08) ADP-Glo assay; assay type: biochemical; conditions: class symbols A-E, read-out: ADP-Glo_hWRN_IC50
WRN (BV08), human Werner helicase (Uniprot Q14191, amino acids 517-1235 with L1074F point mutation), sequence (Q14191 other isoform, or with tags, fused parts or gaps L1074F (already in the parent)): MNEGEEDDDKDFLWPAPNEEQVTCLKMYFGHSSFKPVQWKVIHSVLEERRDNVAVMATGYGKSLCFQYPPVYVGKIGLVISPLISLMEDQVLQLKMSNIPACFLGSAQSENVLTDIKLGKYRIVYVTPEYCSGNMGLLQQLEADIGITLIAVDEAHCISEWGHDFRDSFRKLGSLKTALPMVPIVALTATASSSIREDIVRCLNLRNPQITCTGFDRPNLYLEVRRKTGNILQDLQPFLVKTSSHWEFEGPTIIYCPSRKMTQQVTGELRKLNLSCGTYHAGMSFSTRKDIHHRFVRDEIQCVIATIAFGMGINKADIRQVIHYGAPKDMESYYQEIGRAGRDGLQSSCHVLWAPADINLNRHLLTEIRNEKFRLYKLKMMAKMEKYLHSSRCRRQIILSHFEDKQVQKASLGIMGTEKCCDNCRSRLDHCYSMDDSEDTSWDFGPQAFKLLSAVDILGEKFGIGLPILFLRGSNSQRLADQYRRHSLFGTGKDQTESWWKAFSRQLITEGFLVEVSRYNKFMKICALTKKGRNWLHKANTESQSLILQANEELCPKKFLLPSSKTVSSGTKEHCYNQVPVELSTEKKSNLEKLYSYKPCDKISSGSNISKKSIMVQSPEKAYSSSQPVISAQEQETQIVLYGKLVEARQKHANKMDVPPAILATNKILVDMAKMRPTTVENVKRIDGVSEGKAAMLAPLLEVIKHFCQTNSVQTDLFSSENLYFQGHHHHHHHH

Row | SMILES | EC50 ([1]; Homo sapiens, HCT-116, 24 h) [nM] | IC50 [2] [nM] | EC50 [1] [nM]
1 | CCc1c(N2CCN(C(=O)c3ncnc(C)c3O)[C@H]3CC[C@@H]32)c(=O)c2nc(C)c(C)nc2n1CC(=O)Nc1ccc(C(F)(F)F)cc1Cl [I-126, N-(2-chloro-4-(trifluoromethyl)phenyl)-2-(6-ethyl-7-((1S,6S)-5-(5-hydroxy-6-methylpyrimidine-4-carbonyl)-2,5-diazabicyclo[4.2.0]octan-2-yl)-2,3-dimethyl-8-oxopyrido[2,3-b]pyrazin-5(8H)-yl)acetamide] | < 500 | 5 to 50 | 
2 | CCc1c(N2CCN(C(=O)c3c(O)ccnc3OC)CC2)c(=O)c2ncc(C)nc2n1CC(=O)Nc1ccc(C(F)(F)F)cc1Cl [I-6, N-(2-chloro-4-(trifluoromethyl)phenyl)-2-(6-ethyl-7-(4-(4-hydroxy-2-methoxynicotinoyl)piperazin-1-yl)-3-methyl-8-oxopyrido[2,3-b]pyrazin-5(8H)-yl)acetamide] | 2000 to 5000 | 5 to 50 | 
3 | CCc1c(N2CCN(C(=O)c3ncnc(C)c3O)[C@H]3CC[C@@H]32)c(=O)c2nc(C=C(C)C)nnc2n1CC(=O)Nc1ccc(C(F)(F)F)cc1Cl [I-111, N-(2-chloro-4-(trifluoromethyl)phenyl)-2-(7-ethyl-6-((1S,6S)-5-(5-hydroxy-6-methylpyrimidine-4-carbonyl)-2,5-diazabicyclo[4.2.0]octan-2-yl)-3-(2-methylprop-1-en-1-yl)-5-oxopyrido[3,2-e] [1,2,4]triazin-8(5H)-yl)acetamide] | < 500 | ≤ 5 | 
4 | [2H]C([2H])([2H])N(c1nc2c(=O)c(N3CCN(C(=O)c4ncnc(C)c4O)[C@H]4CC[C@@H]43)c(CC)n(CC(=O)Nc3ccc(C(F)(F)F)cc3F)c2nc1C)C([2H])([2H])[2H] [I-211] | < 500 | 5 to 50 | 
5 | CCc1c(N2C[C@H]3CC[C@@H](C2)N3C(=O)c2ncnc(C)c2O)c(=O)c2nc(N(C)C)cnc2n1CC(=O)Nc1ccc(C(F)(F)F)cc1Cl [I-206, N-[2-chloro-4-(trifluoromethyl)phenyl]-2-[2-(dimethylamino)-6-ethyl-7-[(1R,5S)-8-(5-hydroxy-6-methylpyrimidine-4-carbonyl)-3,8-diazabicyclo[3.2.1]octan-3-yl]-8-oxo-5H,8H-pyrido[2,3-b]pyrazin-5-yl]acetamide] | > 5000 | 5 to 50 | 
6 | CCc1c(N2CCN(C(=O)c3ncnc(C)c3O)C[C@@H]2C)c(=O)c2nc(N3CC[C@H]3COC)cnc2n1CC(=O)Nc1ccc(C(F)(F)F)cc1Cl [I-188, N-[2-chloro-4-(trifluoromethyl)phenyl]-2-{6-ethyl-7-[(2S)-4-(5-hydroxy-6-methylpyrimidine-4-carbonyl)-2-methylpiperazin-1-yl]-2-[(2S)-2-(methoxymethyl)azetidin-1-yl]-8-oxo-5H,8H-pyrido[2,3-b]pyrazin-5-yl}acetamide] | 500 to 2000 | 5 to 50 | 
7 | CCc1c(N2CCN(C(=O)c3c(O)ccnc3OC)[C@@H]3CC[C@H]32)c(=O)c2nc(N(C)C)cnc2n1CC(=O)Nc1ccc(C(F)(F)F)cc1Cl (racemic) [I-139, rac-N-[2-chloro-4-(trifluoromethyl)phenyl]-2-[2-(dimethylamino)-6-ethyl-7-[-5-(4-hydroxy-2-methoxypyridine-3-carbonyl)-2,5-diazabicyclo[4.2.0]octan-2-yl]-8-oxo-5H,8H-pyrido[2,3-b]pyrazin-5-yl]acetamide] | 500 to 2000 | 5 to 50 | 
8 | C/C=C/c1cnc2c(n1)c(=O)c(N1CCN(C(=O)c3ncnc(C)c3O)CC1)c(CC)n2CC(=O)Nc1ccc(C(F)(F)F)cc1Cl [I-8, (E)-N-(2-chloro-4-(trifluoromethyl)phenyl)-2-(6-ethyl-7-(4-(5-hydroxy-6-methylpyrimidine-4-carbonyl)piperazin-1-yl)-8-oxo-2-(prop-1-en-1-yl)pyrido[2,3-b]pyrazin-5(8H)-yl)acetamide] | 500 to 2000 | 5 to 50 | 
9 | CCc1c(N2CCN(C(=O)c3c(O)ccc4nc[nH]c34)CC2)c(=O)c2ncc(C)nc2n1CC(=O)Nc1ccc(C(F)(F)F)cc1Cl [I-71, N-(2-chloro-4-(trifluoromethyl)phenyl)-2-(6-ethyl-7-(4-(6-hydroxy-1H-benzo[d]imidazole-7-carbonyl)piperazin-1-yl)-3-methyl-8-oxopyrido[2,3-b]pyrazin-5(8H)-yl)acetamide] | > 5000 | 5 to 50 | 
10 | CCc1c(N2CCN(C(=O)c3ncnc(C)c3O)CC2)c(=O)c2nc(C(=O)N(C)C)cnc2n1CC(=O)Nc1ccc(C(F)(F)F)cc1Cl [I-48, 5-(2-((2-chloro-4-(trifluoromethyl)phenyl)amino)-2-oxoethyl)-6-ethyl-7-(4-(5-hydroxy-6-methylpyrimidine-4-carbonyl)piperazin-1-yl)-N,N-dimethyl-8-oxo-5,8-dihydropyrido[2,3-b]pyrazine-2-carboxamide] | > 5000 | 100 to 500 | 
11 | CCc1c(N2CCN(C(=O)c3ncnc(C)c3O)C3COCC32)c(=O)c2nc(N(C)C)cnc2n1CC(=O)Nc1ccc(C(F)(F)F)cc1Cl (single isomer, unassigned) [I-278, N-(2-chloro-4-(trifluoromethyl)phenyl)-2-(2-(dimethylamino)-6-ethyl-7-(4-(5-hydroxy-6-methylpyrimidine-4-carbonyl)hexahydrofuro[3,4-b]pyrazin-1(2H)-yl)-8-oxopyrido[2,3-b]pyrazin-5(8H)-yl)acetamide] |  | 5 to 50 | 2000 to 5000
12 | CCc1c(N2CCN(C(=O)c3ncnc(C)c3O)[C@H]3CC[C@@H]32)c(=O)c2nc(N(C)C)c(C)nc2n1CC(=O)Nc1ccc(C(F)(F)F)cc1F [I-129] | < 500 | 5 to 50 | 
13 | CCc1c(N2CCN(C(=O)c3ncnc(C)c3O)CC2)c(=O)c2nc(N3CC[C@H](O)C3)cnc2n1CC(=O)Nc1ccc(C(F)(F)F)cc1Cl [I-88, (S)-N-(2-chloro-4-(trifluoromethyl)phenyl)-2-(6-ethyl-7-(4-(5-hydroxy-6-methylpyrimidine-4-carbonyl)piperazin-1-yl)-2-(3-hydroxypyrrolidin-1-yl)-8-oxopyrido[2,3-b]pyrazin-5(8H)-yl)acetamide] | > 5000 | 5 to 50 | 
14 | CCc1c(N2CCN(C(=O)c3ncnc(C)c3O)C[C@@H]2C)c(=O)c2nc(N3CC[C@H]4C[C@H]43)cnc2n1CC(=O)Nc1ccc(C(F)(F)F)cc1Cl (single isomer, unassigned) [I-192] | < 500 | ≤ 5 | 
15 | CCc1c(N2CCN(C(=O)c3ncnc(C)c3O)CC2)c(=O)c2nc(C(F)F)cnc2n1CC(=O)Nc1ccc(C(F)(F)F)cc1Cl [I-13, N-(2-chloro-4-(trifluoromethyl)phenyl)-2-(2-(difluoromethyl)-6-ethyl-7-(4-(5-hydroxy-6-methylpyrimidine-4-carbonyl)piperazin-1-yl)-8-oxopyrido[2,3-b]pyrazin-5(8H)-yl)acetamide] | > 5000 | 50 to 100 | 
16 | CCc1c(N2CCN(C(=O)c3ncnc(C)c3O)CC2)c(=O)c2nc(C3CC3)c(C)nc2n1CC(=O)Nc1ccc(C(F)(F)F)cc1Cl [I-17, N-(2-chloro-4-(trifluoromethyl)phenyl)-2-(2-cyclopropyl-6-ethyl-7-(4-(5-hydroxy-6-methylpyrimidine-4-carbonyl)piperazin-1-yl)-3-methyl-8-oxopyrido[2,3-b]pyrazin-5(8H)-yl)acetamide] | 500 to 2000 | 5 to 50 | 
17 | CCc1c(N2CCN(C(=O)c3c(OC)ncc(COC)c3O)[C@H]3CC[C@@H]32)c(=O)c2nc(N(C)C)cnc2n1CC(=O)Nc1ccc(C(F)(F)F)cc1Cl [I-292, N-[2-chloro-4-(trifluoromethyl)phenyl]-2-[2-(dimethylamino)-6-ethyl-7-[(1S,6S)-5-[4-hydroxy-2-methoxy-5-(methoxymethyl)pyridine-3-carbonyl]-2,5-diazabicyclo[4.2.0]octan-2-yl]-8-oxo-5H,8H-pyrido[2,3-b]pyrazin-5-yl]acetamide] | > 5000 | 5 to 50 | 
18 | CCc1c(N2CCN(C(=O)c3ncnc(C)c3O)[C@H]3CC[C@@H]32)c(=O)c2nc(N(C)CCO)cnc2n1CC(=O)Nc1ccc(C(F)(F)F)cc1Cl [I-264, N-[2-chloro-4-(trifluoromethyl)phenyl]-2-{6-ethyl-7-[(1S,6S)-5-(5-hydroxy-6-methylpyrimidine-4-carbonyl)-2,5-diazabicyclo[4.2.0]octan-2-yl]-2-[(2-hydroxyethyl)(methyl)amino]-8-oxo-5H,8H-pyrido[2,3-b]pyrazin-5-yl}acetamide] | < 500 | 5 to 50 | 
19 | CCc1c(N2CCN(C(=O)c3ncnc(C)c3O)CC2)c(=O)c2nc(C#N)cnc2n1CC(=O)Nc1ccc(C(F)(F)F)cc1Cl [I-83, N-(2-chloro-4-(trifluoromethyl)phenyl)-2-(2-cyano-6-ethyl-7-(4-(5-hydroxy-6-methylpyrimidine-4-carbonyl)piperazin-1-yl)-8-oxopyrido[2,3-b]pyrazin-5(8H)-yl)acetamide] | > 5000 | 5 to 50 | 
20 | CCc1c(N2CCN(C(=O)c3ncnc(C)c3O)[C@H]3CC[C@@H]32)c(=O)c2nc(N3CC(C)(O)C3)cnc2n1CC(=O)Nc1ccc(C(F)(F)F)cc1Cl [I-246, N-[2-chloro-4-(trifluoromethyl)phenyl]-2-[6-ethyl-2-(3-hydroxy-3-methylazetidin-1-yl)-7-[(1S,6S)-5-(5-hydroxy-6-methylpyrimidine-4-carbonyl)-2,5-diazabicyclo[4.2.0]octan-2-yl]-8-oxo-5H,8H-pyrido[2,3-b]pyrazin-5-yl]acetamide] | 500 to 2000 | 5 to 50 | 
21 | CCc1c(N2CCN(C(=O)c3ncnc(C)c3O)CC2)c(=O)c2nc(N3CC[C@@H]4CC[C@@H]43)cnc2n1CC(=O)Nc1ccc(C(F)(F)F)cc1Cl (racemic) [I-230, rac-2-(2-(2-azabicyclo[3.2.0]heptan-2-yl)-6-ethyl-7-(4-(5-hydroxy-6-methylpyrimidine-4-carbonyl)piperazin-1-yl)-8-oxopyrido[2,3-b]pyrazin-5(8H)-yl)-N-(2-chloro-4-(trifluoromethyl)phenyl)acetamide] | < 500 | 5 to 50 | 
